Test results reported in the NIST ThermoML archive (doi:10.1016/j.fluid.2004.11.019).
± gives the expanded uncertainty stated by the source.

Test: xn = mol fraction of the nth substance listed
Conditions: 298.15 K, Liquid

CCO [ethanol] + O
mass density [kg/m3]
Conditions	100 kPa	10000 kPa
x1 = 0.003	995.3 ± 0.2	999.8 ± 0.3
x1 = 0.0042	994.5 ± 0.2	998.9 ± 0.2
x1 = 0.0082	993 ± 0.2	997.3 ± 0.2
x1 = 0.0119	991.5 ± 0.2	995.8 ± 0.2
x1 = 0.0158	989.8 ± 0.3	994 ± 0.3
x1 = 0.0184	988.4 ± 0.2	992.6 ± 0.2
x1 = 0.0219	987.6 ± 0.2	991.7 ± 0.2
x1 = 0.0255	986 ± 0.3	990.2 ± 0.3
x1 = 0.0279	984.7 ± 0.2	988.7 ± 0.2
x1 = 0.0315	984 ± 0.2	988 ± 0.2
x1 = 0.0366	981.6 ± 0.3	985.7 ± 0.3
x1 = 0.0392	980.7 ± 0.2	984.7 ± 0.3
x1 = 0.0439	979.2 ± 0.3	983.3 ± 0.3
x1 = 0.0483	977.5 ± 0.2	981.6 ± 0.3
x1 = 0.0516	977.1 ± 0.2	981 ± 0.3
x1 = 0.0559	975.8 ± 0.3	979.8 ± 0.3
x1 = 0.06	974.5 ± 0.3	978.5 ± 0.3
x1 = 0.0652	972.9 ± 0.3	976.9 ± 0.3
x1 = 0.0679	972.2 ± 0.3	976.1 ± 0.3
x1 = 0.0722	971 ± 0.3	974.9 ± 0.3
x1 = 0.0801	968.6 ± 0.3	972.4 ± 0.3
x1 = 0.084	967.9 ± 0.3	971.8 ± 0.3
x1 = 0.0879	966.7 ± 0.3	970.6 ± 0.3
x1 = 0.0926	965.6 ± 0.3	969.3 ± 0.3
x1 = 0.0958	964.6 ± 0.3	968.5 ± 0.3
x1 = 0.1006	963.2 ± 0.3	967.1 ± 0.3
x1 = 0.1111	960.2 ± 0.3	964.1 ± 0.3
x1 = 0.1225	956.8 ± 0.3	960.7 ± 0.3
x1 = 0.1296	954.9 ± 0.3	958.8 ± 0.3
x1 = 0.1402	951.8 ± 0.3	955.8 ± 0.3
x1 = 0.151	948.4 ± 0.3	952.5 ± 0.3
x1 = 0.1601	945.6 ± 0.3	949.8 ± 0.3
x1 = 0.1703	942.5 ± 0.3	946.7 ± 0.3
x1 = 0.18	939.8 ± 0.3	943.9 ± 0.3
x1 = 0.1903	936.5 ± 0.3	940.9 ± 0.3
x1 = 0.1996	933.5 ± 0.3	938 ± 0.3
x1 = 0.2269	925.4 ± 0.3	930 ± 0.3
x1 = 0.2502	918.5 ± 0.3	923.3 ± 0.3
x1 = 0.2745	911.7 ± 0.3	916.6 ± 0.3
x1 = 0.3009	904.5 ± 0.3	909.6 ± 0.3
x1 = 0.35	891.9 ± 0.3	897.1 ± 0.3
x1 = 0.4034	879.4 ± 0.3	884.9 ± 0.4
x1 = 0.4501	868.8 ± 0.3	874.7 ± 0.4
x1 = 0.498	859.3 ± 0.3	865.4 ± 0.4
x1 = 0.5501	849.5 ± 0.3	855.8 ± 0.4
x1 = 0.5998	840.9 ± 0.3	847.4 ± 0.4
x1 = 0.6489	832.7 ± 0.3	839.5 ± 0.4
x1 = 0.6967	825.2 ± 0.3	–
x1 = 0.7475	818.2 ± 0.3	–
x1 = 0.7996	810.9 ± 0.3	–
x1 = 0.8484	804.4 ± 0.3	–
x1 = 0.8993	798 ± 0.3	–
x1 = 0.9503	791.7 ± 0.4	–
x1 = 1	785.7 ± 0.4	–
